Results: patent US20030124132A1 (University of Texas, published 2003)

How the values were obtained:
[1] = tested on: L540 human Hodgkin's disease tumors; assay: Growth of L540 tumors after immunoglobulin-tTF conjugate and/or etoposide; assay type: in vivo, mice; conditions: day 14
Method: The tumor test systems were: i) L540 human Hodgkin's disease tumors growing in SCID mice; ii) C1300 Muγ (interferon-secreting) neuroblastoma growing in nu/nu mice; iii) H460 human non-small cell lung carcinoma growing in nu/nu mice. To establish solid tumors, 1.5×10^7 tumor cells were injected subcutaneously into the right anterior flank of SCID or BALB/c nu/nu mice (Charles River Labs., Wilmingham, Mass.). When the tumors had grown to various diameters, mice were assigned to different experimental groups, each containing 4 to 9 mice.
Other mice received equivalent quantities of bispecific antibody alone. The injections were performed over ˜45 seconds into one of the tail veins, followed by 200 μl of saline. The infusions were repeated six days later. Perpendicular tumor diameters were measured at regular intervals and tumor volumes were calculated.
Mice bearing L540 human Hodgkin's disease tumors were treated with a complex of tTF219 and a bispecific antibody together with the anti-cancer drug, etoposide, at a conventional dose.

[2] = tested on: bEnd 3 cells; assay: Cell bound coagulation assay on stimulated endothelial cells (Factor Xa generation); assay type: cell-based, mouse
Method: (§1) To assay the coagulation induction of stimulated versus unstimulated endothelial cells, bend 3 cells were seeded in 48 well tissue culture plates at a density of 1×10^4 cells per well and allowed to adhere overnight. Cells were stimulated with endotoxin (0.5 μg/ml and 10 μg/ml) or TNFα (500 U/ml) for 4 h at 37° C. […] After incubation for 45 min at room temperature, cells were washed and incubated with various coagulation factor mixes as follows: (1) 0.5 μg/ml factor VIIa in a mix containing 2.8 μg/ml factor IX, 3.4 μg/ml factor X, 50 μM phospholipids, in calcium buffer (as specified above); (2) 0.01 μg/ml factor VIIa in a mix as in (1); (3) 2 μg/ml factor VII (Calbiochem-Novabiochem, San Diego, Calif.) in a mix as in (1); (4) 2 μg/ml factor VII. 0.01 μg/ml factor VIIa in a mix as in (1). The supernatant of wells was transferred into a 96 well ELISA plate. Substrate S2765 was added and Factor Xa generation measured alongside different concentrations of Factor Xa standard (7 nkatS2222; 0.7 nkatS2222; 0.07 nkatS2222). OD405 nm values were calculated as nkatS2222 Factor Xa from the Factor Xa standard curve.
as §1, with “bEnd” for “To assay the coagulation induction of stimulated versus unstimulated endothelial cells, bend”, “with” for “with various”, “mix” for “mixes”, “follows:” for “follows: (1)”, “buffer;” for “buffer (as specified above); (2) 0.01 μg/ml factor VIIa in a mix as in (1); (3) 2 μg/ml factor VII (Calbiochem-Novabiochem, San Diego, Calif.) in a mix as in (1); (4) 2 μg/ml factor VII. 0.01 μg/ml factor VIIa in a mix as in (1). The”

[3] = tested on: tissue factor on HUVEC cells; assay: FACS analysis of tissue factor expression on endothelial cells; assay type: cell-based, human; conditions: TNFα 500 U/ml, LPS 10 μg/ml, VEGF 1 nM, alone or in combination, 6 h
Method: To analyze tissue factor expression on the surface of endothelial cells, HUVEC cells were incubated with TNFα (500 U/ml), LPS (10 μg/ml) or vascular endothelial growth factor (VEGF, 1 nM) alone or in combination for 6 h at 37°. Cells were then detached and stained for surface expression of human tissue factor with a sheep-anti-human tissue factor antibody (Haemochrom, Essen, Germany) and an appropriate FITC-conjugated secondary antibody. Fluorescent cells were detected on a flow cytometer (Becton Dickinson, San Jose, Calif.).

[4] = tested on: VCAM-1 on mouse endothelial cells; assay: VCAM-1 upregulation on endothelial cells by TNFα (FACS); assay type: cell-based
Method: (§2) Mouse endothelial cells were seeded in 48 well tissue culture plates and allowed to adhere overnight. Cells were stimulated with TNFα at the following concentrations: 500 U/ml; 100 U/ml; 20 U/ml; 4 U/ml; 0.8 U/ml; 0.16 U/ml; and with medium only.
Endothelial cells were then investigated for upregulation of the adhesion molecule VCAM-1 by fluorescence activated cell stain (FACS). To this end, cells were stained with an antibody against murine VCAM-1, followed by an appropriate FITC-conjugated secondary antibody. Fluorescent cells were detected on a flow cytometer (Becton Dickinson, San Jose, Calif.).

[5] = tested on: mouse endothelial cells; assay: Cell based two stage coagulation assay after TNFα stimulation
Method: as §2
Endothelial cells were also tested for coagulant activity in a cell based two stage coagulation assay. After incubation with TNFα, cells were washed and incubated with coagulation factor mix (0.5 μg/ml factor VIIa in a mix containing 2.8 μg/ml factor IX, 3.4 μg/ml factor X, 50 μM phospholipids, in calcium buffer). The supernatant of wells was transferred into a 96 well ELISA plate. Substrate S2765 was added and Factor Xa generation measured.

Molecule | average tumor volume [1] [mm^3] | Factor Xa generation ([2]; cells stimulated with TNFα (500 U/ml), then incubated with row agent (row Medium = stimulant alone), mix with 0.5 μg/ml factor VIIa) [nkats2222] | Factor Xa generation due to Factor VIIa production ([2]; cells stimulated with TNFα (row Medium = stimulant alone), mix with 2 μg/ml factor VII and 0.01 μg/ml factor VIIa) [nkats2222] | tissue factor expression on the surface of HUVEC [3] | TNFα required for a measurable increase of VCAM-1 expression [4] [U/ml] | TNFα at which an increase in coagulation versus negative control could be detected [5] [U/ml] | dose for coagulation increase lower than for VCAM-1 increase [5] [fold]
COc1cc([C@@H]2c3cc4c(cc3[C@@H](O[C@@H]3O[C@@H]5CO[C@@H](C)O[C@H]5[C@H](O)[C@H]3O)[C@H]3COC(=O)[C@H]23)OCO4)cc(OC)c1O [etoposide] | 1400 |  |  |  |  |  | 
TNFα |  | 0.35 | 1.23 | upregulated tissue factor expression | 20 | 0.16 | 125
